Test results reported in US10150743B2, “Carboxylic acid compounds” (priority 2012, dated 2018).

How the values were obtained:
hERG potassium channel = hERG potassium channel (Homo sapiens (Human), UniProt Q12809); assay: hERG Analysis - Method 2 (QPATCH HT, CHO-hERG cells); format: cell-based; conditions: half-maximal inhibition concentration, 22±2° C.
Protocol: The hERG potassium current was measured in a hERG-stably-expressing Chinese hamster ovary K1 (CHO) cells. The experiments were performed using an automated planar patch-clamp system QPATCH HT (Sophion Bioscience A/S). The application of pressure for forming gigaseals and whole-cell patch clamp configuration were established using the QPATCH assay software. Patch-clamp experiments were performed in voltage-clamp mode and whole-cell currents were recorded from individual cells. The following stimulation protocol was applied to investigate the effects of compounds on hERG potassium channel: The membrane potential was held at −80 mV and repetitively (every 15 s) depolarized to +20 mV for 5 s after the pulse to −50 mV for 20 ms served to define the baseline, followed by repolarizing step to −50 mV for 5 s to evaluate of the tail current amplitude. Experiments were conducted at room temperature (22±2° C.).
Effects of compounds were determined from cumulative applications of increasing 4 concentrations and calculated as percent of blocked current. The data points were fitted with Hill equation to calculate half-maximal inhibition concentrations. The test solution includes: Extracellular solution (mM): 2 mM of CaCl2, 1 mM of MgCl2, 10 mM of HEPES, 4 mM of KCl, 145 mM of NaCl, and 10 mM of Glucose; and Intracellular solution (mM): 5.4 mM of CaCl2, 1.8 mM of MgCl2, 10 mM of HEPES, 31 mM of KOH, 10 mM of EGTA, 120 mM of KCl, and 4 mM of ATP.

Renca mouse tumour cells = assay: Tumour growth studies in Renca, a murine syngeneic renal carcinoma tumour model; format: in vivo; conditions: Balb/C mice, 0.3 mg/kg once a week p.o. on days 1, 8, 15; vs 0.5% methylcellulose; FIG. 9
Protocol: Experiments were conducted on female mice (Balb/C genotype, at least 5 weeks old). Renca mouse tumour cells (Cancer Chemother Pharmacol. 1995; 36 (1): 7-12) were kindly provided by Dr. T. Fujioka at Department of Urology, Iwate Medical University School of Medicine. Renca mouse tumour cells (5×10^4) were implanted subcutaneously in the flank of mice on day 0. Mice were treated with either drug vehicle (0.5% methylcellulose), the compound of Example 3 (0.3 mg/kg once a week) or the compound of Example 4 (3 mg/kg once a week) administered orally (p. o.) on days 1, 8, and 15. Tumour volumes were assessed at least twice weekly by bilateral vernier caliper measurements.
Tumour growth inhibition from the start of treatment was assessed by comparison of the differences in tumour growth rate between control and the compound of Example 3 treated groups, as shown in FIG. 9.
Tumour growth inhibition from the start of treatment was assessed by comparison of the differences in tumour growth rate between control and the compound of the Example 4 treated groups, as shown in FIG. 10.

CT26 mouse tumour cells = assay: Survival studies in CT26, a murine syngeneic colon carcinoma tumour model; format: in vivo; conditions: Balb/C mice; RT 2Gy x5 plus 30 mg/kg once a week p.o.; vs control or RT; FIG. 12
Protocol: Experiments were conducted on female mice (Balb/C genotype, at least 5 weeks old). CT26 mouse tumour cells (CRL-2638) were purchased from ATCC. CT26 mouse tumour cells (1×10^6) were implanted subcutaneously in the flank of mice on day 0. Mice in radiotherapy alone (RT) group and combination group were anesthetized and received radiation therapy (2Gy) at days 7, 8, 9, 10, and 11. Mice in combination group were also treated with a compound of Example 3 (30 mg/kg once a week) administered orally (p.o.) or Example 4 (5 mg/kg once a week) administered intravenously (i. v.) on days 7, 14, 22, and 27. Tumour volumes were assessed at least twice weekly by bilateral vernier caliper measurements. Survival period was determined by the time taken for tumours to reach 4 times the volume at the time of treatment.

hERG potassium channel, sequence (Q12809 whole entry): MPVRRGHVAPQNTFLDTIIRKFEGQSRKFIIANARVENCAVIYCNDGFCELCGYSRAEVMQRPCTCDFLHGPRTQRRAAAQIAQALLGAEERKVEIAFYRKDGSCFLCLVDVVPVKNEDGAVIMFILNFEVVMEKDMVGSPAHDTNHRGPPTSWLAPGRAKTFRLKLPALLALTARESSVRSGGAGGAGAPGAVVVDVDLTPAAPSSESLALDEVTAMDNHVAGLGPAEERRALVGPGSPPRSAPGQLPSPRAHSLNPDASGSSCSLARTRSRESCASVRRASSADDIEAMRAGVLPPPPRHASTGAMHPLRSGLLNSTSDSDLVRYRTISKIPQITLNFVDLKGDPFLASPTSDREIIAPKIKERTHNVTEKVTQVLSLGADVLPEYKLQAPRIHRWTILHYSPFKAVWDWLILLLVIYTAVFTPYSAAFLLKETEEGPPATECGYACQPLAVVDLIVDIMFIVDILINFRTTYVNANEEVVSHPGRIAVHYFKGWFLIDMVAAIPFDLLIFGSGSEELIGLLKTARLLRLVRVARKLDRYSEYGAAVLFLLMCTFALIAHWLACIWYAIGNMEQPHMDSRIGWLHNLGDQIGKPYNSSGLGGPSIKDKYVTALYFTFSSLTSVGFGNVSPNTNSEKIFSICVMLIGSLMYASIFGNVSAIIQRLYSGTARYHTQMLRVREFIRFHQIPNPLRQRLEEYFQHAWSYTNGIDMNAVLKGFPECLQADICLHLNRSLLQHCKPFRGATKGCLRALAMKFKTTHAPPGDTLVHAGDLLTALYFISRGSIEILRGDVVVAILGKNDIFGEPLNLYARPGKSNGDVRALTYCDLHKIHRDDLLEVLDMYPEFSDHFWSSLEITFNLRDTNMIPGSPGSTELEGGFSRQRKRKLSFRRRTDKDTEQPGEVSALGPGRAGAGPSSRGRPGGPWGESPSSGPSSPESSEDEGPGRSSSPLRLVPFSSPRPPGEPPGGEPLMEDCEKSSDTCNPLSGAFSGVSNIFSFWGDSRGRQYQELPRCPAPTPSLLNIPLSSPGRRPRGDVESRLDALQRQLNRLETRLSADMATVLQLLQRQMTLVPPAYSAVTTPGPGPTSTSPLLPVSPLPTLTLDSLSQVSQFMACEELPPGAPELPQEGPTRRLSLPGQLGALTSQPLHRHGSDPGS

CCC[C@@H](CCO)Nc1nc(N)nc(C)c1Cc1ccc(CN(CC(=O)O)CC(F)F)cc1OC [Example 3, (S)-2-((4-((2-amino-4-(1-hydroxyhexan-3-ylamino)-6-methylpyrimidin-5-yl)methyl)-3-methoxybenzyl)(2,2-difluoroethyl)amino)acetic acid]
IC50 (hERG potassium channel): > 10 µM
Tumour growth inhibition (Renca mouse tumour cells): inhibited tumour growth
Survival period (time for tumours to reach 4 times the volume at treatment) (CT26 mouse tumour cells): survived significantly longer
